US20150368242A1, “NOVEL TETRAHYDROPYRIDOPYRIMIDINONE DERIVATIVE” (Ajinomoto Co., Inc., priority 2013, published 2015)
pIC50: −log10 of the molar value. Structures can show the parent of a compound that is named as a salt.

Target: T1, recombinant human MGAT2 enzyme (Homo sapiens, UniProt Q3SYC2)
T1 construct: made in house; host or cells: CHO-K1 (Jump-In CHO-K1 Kit, Life Technologies); microsomal fraction used as the enzyme solution
Assay: Test for human MGAT2 activity inhibitory action (14C-oleoyl CoA, recombinant enzyme microsomes)
Type: biochemical
Set-up: key to Potency relative to Comparative Example 1 (higher = more potent): % inhibition = {1−(C−B)/(A−B)}×100, B = 10 μM Comparative Example 1
Details: for pIC50: Table 5, Examples 25 to 60, same method, read-out: IC50; for Potency relative to Comparative Example 1 (higher = more potent): Table 5, relative to Comparative Example 1 measured in the same run
Experimental: The human MGAT2 gene described in Am. J. Physiol. Endocrinol. Metab. 285: E927-E937, 2003 was expressed using Jump-In™ CHO-K1 Kit (Life technologies) as described in the attached manual. The cells were suspended in a buffer containing Tris-hydrochloric acid (pH 7.4) at a final concentration of 1 mM, 1 mM ethylenediaminetetraacetic acid, 1 mM dithiothreitol, 250 mM sucrose, and complete protease inhibitor cocktail (Roche applied Science), and then disrupted using a Teflon homogenizer (AS ONE Corporation), followed by centrifugation at 130 g for 10 minutes. The supernatant was further centrifuged at 100,000 g for 1 hour to obtain a pellet as microsomes containing the recombinant enzyme, and a solution obtained by suspending this pellet at a protein concentration of about 800 to 1900 μg/ml was used as an MGAT recombinant enzyme solution.
To a buffer containing 50 mM Tris-hydrochloric acid (pH 7.4), 6 mM magnesium chloride, and 2 mg/mL bovine serum albumin, a test compound was added, and the final concentration of dimethyl sulfoxide was adjusted to 0.3%. Moreover, 2-monooleoyl glycerol, oleoyl CoA, 1-^14C-oleoyl CoA (Perkin Elmer), and orlistat (SIGMA) were added at final concentrations of 50 μM, 50 μM, 2.2 μM, and 8.3 μM, respectively, followed by incubation at 37° C. for 10 minutes. After 10 minutes, the recombinant human MGAT2 enzyme solution was added at a final concentration of 0.67 μg/mL, and the reaction was started, with the amount of the reaction solution being 150 μl. The reaction was carried out at 37° C. for 30 minutes.
After 30 minutes, the reaction was stopped by adding 300 μl of isopropanol:heptane:water=(80:20:2) to the reaction liquid. Further, 200 μl of heptane and 100 μl of water were added, followed by stirring. Then, 100 μl of the upper layer was transferred to a 96-well plate (Corning), and mixed with 100 μl of liquid scintillator (LumaSafe Plus, Lumac). Then, the ^14C count was quantitatively determined using TopCount NXT™ microplate scintillation luminescence counter (Perkin Elmer).
The ^14C count in a case where no test compound was added was defined as A, the ^14C count in a case where 10 μM of the compound (Comparative Example 1) of Example No. 8 of WO2008/038768 was added was defined as B, and the ^14C count in the case where the test compound was added was taken as C. For this case, {1−(C−B)/(A−B)}×100(%) was calculated as the human MGAT2 activity inhibition ratio of the test compound (shown in the column named vs Comp. Ex. 1 in the following Table). A greater value of the “vs Comparative Example 1” means that the MGAT2 activity inhibitory action of the compound of Example was higher as compared to the MGAT2 activity inhibitory action of the compound of Comparative Example 1 (i.e., the human MGAT2 activity inhibition ratio was higher). […] Since this evaluation test was conducted for two separate groups, the test results of the two groups are shown separately in Table (First Test) and Table 4 (Second Test).
Next, the compounds of Examples 25 to 60 of the present invention were also investigated for their pharmacological action by using the same method as in Examples 1 to 24. […] Note that, a comparative evaluation test against the compound of Comparative Example 1 was conducted for each of the compounds of Examples (in every measurement of the inhibitory activity of the compounds of Examples 25 to 60, the inhibitory activity of the compound of Comparative Example 1 was measured). The 50% inhibition concentrations of Comparative Example 1 in the measurement of the inhibitory activities of the compounds of Examples 25 to 60 were shown in Table 5 as “IC50 (nM) of Comparative Example 1.”

T1 sequence (Q3SYC2 whole entry): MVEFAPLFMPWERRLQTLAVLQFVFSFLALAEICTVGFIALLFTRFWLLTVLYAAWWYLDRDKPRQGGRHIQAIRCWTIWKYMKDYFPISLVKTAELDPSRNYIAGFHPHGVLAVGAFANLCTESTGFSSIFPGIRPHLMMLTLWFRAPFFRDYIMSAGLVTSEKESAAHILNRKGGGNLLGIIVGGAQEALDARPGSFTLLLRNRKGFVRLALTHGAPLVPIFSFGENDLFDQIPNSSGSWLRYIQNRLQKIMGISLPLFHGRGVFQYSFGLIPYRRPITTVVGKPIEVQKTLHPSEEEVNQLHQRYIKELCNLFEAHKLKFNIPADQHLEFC

pIC50	Potency relative to Comparative Example 1 (higher = more potent)	Structure (SMILES)
9.40	320	O=C(CCNCC1CCCC(C(F)(F)F)C1)N1CCc2nc(SC3CCC3)n(-c3ccccc3)c(=O)c2C1 (stereo not shown) [Example 39, 2-cyclobutylsulfanyl-3-phenyl-6-[3-[[3-(trifluoromethyl)cyclohexyl]methylamino]propanoyl]-7,8-dihydro-5H-pyrido[4,3-d]pyrimidin-4-one trifluoroacetate]
9.15	–	CC(C)[C@H](CNCCC(=O)N1CCc2nc(SC3CCC3)n(-c3ccccc3)c(=O)c2C1)Nc1ccc(Cl)cc1 [Example 40, 6-[3-[[(2R)-2-(4-chloroanilino)-3-methyl-butyl]amino]propanoyl]-2-cyclobutylsulfanyl-3-phenyl-7,8-dihydro-5H-pyrido[4,3-d]pyrimidin-4-one trifluoroacetate]
8.96	–	C[C@@H](NCCC(=O)N1CCc2nc(SC3CCC3)n(-c3ccccc3)c(=O)c2C1)c1ccccc1 [Example 41, 2-cyclobutylsulfanyl-3-phenyl-6-[3-[[(1R)-1-phenylethyl]amino]propanoyl]-7,8-dihydro-5H-pyrido[4,3-d]pyrimidin-4-one trifluoroacetate]
8.60	–	O=C(CCNC[C@H](O)c1ccc(F)cc1)N1CCc2nc(SC3CCC3)n(-c3ccccc3)c(=O)c2C1 [Example 43, 2-cyclobutylsulfanyl-6-[3-[[(2R)-2-(4-fluorophenyl)-2-hydroxy-ethyl]amino]propanoyl]-3-phenyl-7,8-dihydro-5H-pyrido[4,3-d]pyrimidin-4-one trifluoroacetate]
8.43	73	O=C(CNCCCOc1ccc(F)cc1)N1CCc2nc(SC3CCC3)n(-c3ccccc3)c(=O)c2C1 [Example 50, 2-cyclobutylsulfanyl-6-[2-[3-(4-fluorophenoxy)propylamino]acetyl]-3-phenyl-7,8-dihydro-5H-pyrido[4,3-d]pyrimidin-4-one trifluoroacetate]
8.38	64	O=C(CNCCOc1ccc(F)cc1)N1CCc2nc(SC3CCC3)n(-c3ccccc3)c(=O)c2C1 [Example 51, 2-cyclobutylsulfanyl-6-[2-[2-(4-fluorophenoxy)ethylamino]acetyl]-3-phenyl-7,8-dihydro-5H-pyrido[4,3-d]pyrimidin-4-one trifluoroacetate]
8.77	158	O=C(CNCCCCOc1ccc(F)cc1)N1CCc2nc(SC3CCC3)n(-c3ccccc3)c(=O)c2C1 [Example 52, 2-cyclobutylsulfanyl-6-[2-[4-(4-fluorophenoxy)butylamino]acetyl]-3-phenyl-7,8-dihydro-5H-pyrido[4,3-d]pyrimidin-4-one trifluoroacetate]
8.59	91	O=C(CNCc1ccc(Oc2cccc(C(F)(F)F)c2)cc1)N1CCc2nc(SC3CCC3)n(-c3ccccc3)c(=O)c2C1 [Example 54, 2-cyclobutylsulfanyl-3-phenyl-6-[2-[[4-[3-(trifluoromethyl)phenoxy]phenyl]methylamino]acetyl]-7,8-dihydero-5H-pyrido[4,3-d]pyrimidin-4-one trifluoroacetate]
> 9.00	>207	O=C(CNCCCCCNc1ccc(C(F)(F)F)cc1)N1CCc2nc(SC3CCC3)n(-c3ccccc3)c(=O)c2C1 [Example 55, 2-cyclobutylsulfanyl-3-phenyl-6-[2-[5-[4-(trifluoromethyl)anilino]pentylamino]acetyl]-7,8-dihydro-5H-pyrido[4,3-d]pyrimidin-4-one trifluoroacetate]
8.24	35	O=C(CCNCc1nnc(Cc2ccc(C(F)(F)F)cc2)o1)N1CCc2nc(SC3CCC3)n(-c3ccccc3)c(=O)c2C1 [Example 56, 2-cyclobutylsulfanyl[-3-phenyl-6-[3-[5-[[4-(trifluoromethyl)phenyl]methyl]-1,3,4-oxadiazol-2-yl]methylamino]propanoyl]-7,8-dihydro-5H-pyrido[4,3-d]pyrimidin-4-one trifluoroacetate]

Second part, the molecule before the results:

Structure (SMILES)	pIC50	Potency relative to Comparative Example 1 (higher = more potent)
C[C@H](NCCC(=O)N1CCc2nc(SC3CCC3)n(-c3ccccc3)c(=O)c2C1)c1ccccc1 [Example 42, 2-cyclobutylsulfanyl-3-phenyl-6-[3-[[(1S)-1-phenylethyl]amino]propanoyl]-7,8-dihydro-5H-pyrido[4,3-d]pyrimidin-4-one trifluoroacetate]	8.92	–
O=C(CCNCC(O)COc1ccc(F)cc1)N1CCc2nc(SC3CCC3)n(-c3ccccc3)c(=O)c2C1 (stereo not shown) [Example 44, trifluoroacetate]	8.74	135
O=C(CCNCC(O)COc1ccc(Cl)cc1)N1CCc2nc(SC3CCC3)n(-c3ccccc3)c(=O)c2C1 (stereo not shown) [Example 45, 6-[3-[[3-(4-chlorophenoxy)-2-hydroxy-propyl]amino]propanoyl]-2-cyclobutylsulfanyl-3-phenyl-7,8-dihydro-5H-pyrido[4,3-d]pyrimidin-4-one trifluoroacetate]	8.89	–
O=C(CCNCCOc1ccc(F)cc1)N1CCc2nc(SC3CCC3)n(-c3ccccc3)c(=O)c2C1 [Example 46, 2-cyclobutylsulfanyl-6-[3-[2-(4-fluorophenoxy)ethylamino]propanoyl]-3-phenyl-7,8-dihydro-5H-pyrido[4,3-d]pyrimidin-4-one trifluoroacetate]	> 9.00	–
O=C(CCNCCCOc1ccc(F)cc1)N1CCc2nc(SC3CCC3)n(-c3ccccc3)c(=O)c2C1 [Example 47, 2-cyclobutylsulfanyl-6-[3-[3-(4-fluorophenoxy)propylamino]propanoyl]-3-phenyl-7,8-dihydro-5H-pyrido[4,3-d]pyrimidin-4-one trifluoroacetate]	8.96	–
O=C(CCNCCCCOc1ccc(F)cc1)N1CCc2nc(SC3CCC3)n(-c3ccccc3)c(=O)c2C1 [Example 48, 2-cyclobutylsulfanyl-6-[3-[4-(4-fluorophenoxy)butylamino]propanoyl]-3-phenyl-7,8-dihydro-5H-pyrido[4,3-d]pyrimidin-4-one trifluoroacetate]	> 9.00	>184
O=C(CCNCCCCCOc1ccc(F)cc1)N1CCc2nc(SC3CCC3)n(-c3ccccc3)c(=O)c2C1 [Example 49, 2-cyclobutylsulfanyl-6-[3-[5-(4-fluorophenoxy)pentylamino]propanoyl]-3-phenyl-7,8-dihydro-5H-pyrido[4,3-d]pyrimidin-4-one trifluoroacetate]	> 9.00	>184
O=C(CNCCCCCOc1ccc(F)cc1)N1CCc2nc(SC3CCC3)n(-c3ccccc3)c(=O)c2C1 [Example 53, 2-cyclobutylsulfanyl-6-[2-[5-(4-fluorophenoxy)pentylamino]acetyl]-3-phenyl-7,8-dihydro-5H-pyrido[4,3-d]pyrimidin-4-one trifluoroacetate]	8.70	133
O=C(CNCCCCCOC1CCCCC1)N1CCc2nc(SC3CCC3)n(-c3ccccc3)c(=O)c2C1 [Example 57, 2-cyclobutylsulfanyl-6-[2-[5-(cyclohexoxy)pentylamino]acetyl]-3-phenyl-7,8-dihydro-5H-pyrido[4,3-d]pyrimidin-4-one trifluoroacetate]	8.59	81
